The text below walks through data of article PMC9475553, “SHF Acts as a Novel Tumor Suppressor in Glioblastoma Multiforme by Disrupting STAT3 Dimerization” (Advanced Science, 2022).

One assay deals with U118 cells. Kind of assay: Cell growth assay (CCK-8), U118. It counts as cell-based, human. Conditions: n=6. Here is the method:
Cell growth was quantified using the Cell Counting Kit‐8 Assay Kit (Bimake, Houston, TX). Each experiment was repeated at least six times. For the colony formation assay, 800 cells were seeded into each well of a six‐well plate with soft agar (Agarose; Sigma, St. Louis, MO) and maintained in a medium containing 10% FBS for 14 days. The colonies were fixed with methanol and stained with 0.1% crystal violet; the clones containing at least 50 cells were counted using an inverted microscope.
Supplementary Fig. 9 C16 inhibits tumor growth and promotes chemosensitivity in vitro.
B. Colony formation of cells treated with SC or C16 (left) and the accompanying statistical
analysis (right; n=6, Student’s t-test, **P < 0.01).
C. Annexin V staining flow cytometry assay of cells simultaneously treated with Dox with SC or
C16 for 48 h (n=3, Student’s t-test, *P < 0.05, **P < 0.01).
(1 picture or pasted object on this page, not shown here)

Assay [1] concerns intracranial U87 xenograft in nude mice. Kind of assay: Intracranial U87 xenograft tumor growth, bioluminescence. It counts as in vivo, mouse. Conditions: female nude mice, 10 µg i.p. once every 2 days from third day after implantation; vs SC; n = 6, p < 0.01. From the text:
Considering that the SH2 domain predominantly represents the inhibition of SHF on STAT3 dimerization and activity, we speculated that this domain may be an optional target for GBM suppression. To this end, we analyzed the mechanical interaction of SHF and STAT3. The structures of human SHF (aa265‐421) and STAT3 (aa130‐715). both of which spanned their respective SH2 domain. were simulated by Swiss‐Model server (https://swissmodel.expasy.org/). To simulate the interaction of SHF and STAT3, Discovery studio 2018 was employed to complete protein‐protein docking using ZDOCK as an initial stage. A rigid body molecular docking algorithm utilizing a fast Fourier transform (FFT) algorithm was used to further improve performance for searching in translational space. […] Next, we determined the implication of C16 in tumor inhibition. […] A concentration of 25 uM was determined to be adequate for use in the subsequent experiments. […]
Figure 7 Peptide derived from the STAT3‐binding sites of SHF is an effective GBM suppressive strategy. […] B) IF staining determined the cell penetrability and nuclear‐localization of C16. […] The relative quantification of STAT3 dimerization was listed. […] The relative quantification of STAT3/DNMT1 interaction was listed. […] The relative quantification of STAT3/DNMT1 interaction was listed. […]

On to “C16: peptide spanning SHF amino acids 388–421, palmitic acid at the N-terminus, amidated C-terminus, 3× His tags added to the C-terminal (PFSSVPEIVHHYASRKLPIKGAEHMSLLYPVAIR; palmitic acid at the N-terminus; amidated C-terminus; left off: 3× His tags, C-terminal, kept)”, for which the cell growth inhibition result in the assay with U118 cells is reported as “inhibited cell growth with concentration dependence”. Further, the “growth of intracranial tumors” value in assay [1] is “potently inhibited the growth of intracranial tumors”.
